Source: patent publication US7045537B1, “Protein structures and protein fibres” (The University of Sussex, priority 1999, dated 2006)
Residues, ends and D or L forms follow the SMILES beside them.

Assays:
Type in all cases: physicochemical
[1] = Circular dichroism (CD) spectroscopy of peptides and peptide mixtures; settings: individual peptide, 10 mM MOPS pH 7, 5° C.
Method: Peptide samples were incubated at 5° C. in 10 mM MOPS (3-(N-Morpholino)propanesulfonic acid), pH 7. Sample concentrations were determined from their UV absorbance at 280 nm (SAF-p1) and 214 nm (SAF-p2). After baseline correction, ellipticities in mdeg were converted to molar ellipticities (deg cm^2 dmol-res^−1) by normalizing for the concentration of peptide bonds. Data were recorded in a cell of 1 mm path length by integrating the signal for 5s (and 1s for the fresh 100 μM peptide mixture) every nm in the range 205–260 nm. CD measurements were made using a JASCO J-715 spectropolarimeter fitted with a Peltier temperature controller.
The CD data shown in FIG. 3 provides spectroscopic evidence for the formation of helical structures by the SAF peptides.
Consistent with our design, neither SAF-p1 nor SAF-p2 was highly structured in aqueous solution at pH 7 and 5° C. (FIG. 3). However, when mixed in equal proportions the circular dichroism (CD) spectrum changed and, moreover, was markedly different from the theoretical spectrum generated by averaging the spectra for the isolated peptides. In particular, the spectrum for the mixture had intense minima at 208 and 222 nm consistent with the formation of α-helical structure, but these features were not as pronounced in the spectra of the individual peptides. This was clear evidence that the two peptides interacted to form an α-helical structure as designed. Furthermore, and as expected for a multimerization event, the magnitude of these spectral changes depended on peptide concentration; a SAF mixture with 10 μM of each peptide, did show a weak signal indicative of some α-helical structure, however, a 100 μM mixture gave a much stronger signal (FIGS. 3A&B).
The shape and intensity of spectra from 100 μM mixtures of the SAF peptides also changed with time (FIG. 3B). […] After incubation of the mixture for 1 hour at 5° C. (“maturation”), however, the signal at 222 nm was more intense, and indicated approximately 75% α-helix, consistent with substantial coiled-coil formation.

[2] = Electron microscopy (TEM/SEM) of peptide preparations; settings: individual peptide
Method: To confirm fibre assembly, we used electron microscopy to visualize structures in the peptide preparations directly. For TEM experiments, peptide samples were incubated for 1 h at 5° C. in filtered 10 mM MOPS, pH 7. A drop of peptide solution was applied to a carbon-coated copper specimen grid (Agar Scientific Ltd, Stansted, UK), and dried with filter paper before negative staining with 0.5% aqueous uranyl acetate and then dried at 5° C. A “fresh” SAF peptide mixture was prepared by mixing preincubated solutions of the individual peptides at 200 μM directly on the specimen grid, before drying and negative staining as described. Grids were examined in a Hitachi 7100 TEM at 100 kV and digital images were acquired with a (800×1200 pixel) charge-coupled device camera (Digital Pixel Co. Ltd., Brighton, UK) and analyzed (Kinetic Imaging Ltd., Liverpool, UK).
For scanning electron microscopy (SEM) experiments, negatively-stained specimen grids were sputter-coated with gold and examined in a Leo Stereoscan 420 SEM at 20 kV and with a probe current of 10 pA.

[3] = Linear dichroism (LD) spectroscopy under shear flow; settings: for LD DATA @ 100 μM (signal): individual peptide
Method: Linear dichroism (LD) spectroscopy was also used to test if elongated structures were being formed as designed. Long polymers such as DNA molecules can be oriented by shear flow. This effect can be monitored by LD spectroscopy provided that chromophores also become aligned by the flow (M. Bloemendal (1994) Chem. Soc. Rev. 23, 265; A. Rodger and B. Norden (1997) Oxford Chemistry Masters (Oxford University Press, Oxford), vol. 1).
Peptide samples were prepared for LD as for CD. LD data were collected on samples spinning in a couette flow cell by integrating the signal for 2 s every nm in the range […], using a JASCO J-715 spectropolarimeter. After baseline correction, absorbance was converted to molar extinction coefficient (1 mol-res^−1 cm^−1) by normalizing for the concentration of peptide bonds. A linear correction for a sloping baseline was made to the data from the 100 μM SAF peptide mixture.

[4] = Solubility remarks in peptide design table; settings: individual peptide
Description: Various peptide monomer units were designed as described above. The monomers and capping peptides (designed to complement the sticky ends of the monomers so as to produce flush, or blunt ends and, so, arrest longitudinal fibre assembly) are set out in Table 1: […]

| Molecule | CD DATA @ 10 μM (α-helix) [1] | CD DATA @ 100 μM (α-helix) [1] [%] | EM DATA @ 100 μM (fibres) [2] | LD DATA @ 100 μM (signal) [3] | LD signal ([3]; 20 μM) | DESIGN remark on solubility / precipitation [4] |
| --- | --- | --- | --- | --- | --- | --- |
| tropomyosin [reference compound] | – | – | – | – | could be aligned to give a LD signal | – |
| CC[C@H](C)[C@H](NC(=O)[C@H](CCCCN)NC(=O)[C@H](CCC(N)=O)NC(=O)[C@H](CCCCN)NC(=O)[C@H](CC(C)C)NC(=O)[C@H](C)NC(=O)[C@H](C)NC(=O)[C@@H](NC(=O)[C@@H](N)CCCCN)[C@@H](C)CC)C(=O)N[C@@H](C)C(=O)N[C@@H](C)C(=O)N[C@@H](CC(C)C)C(=O)N[C@@H](CCCCN)C(=O)N[C@@H](CCC(N)=O)C(=O)N[C@@H](CCC(=O)O)C(=O)N[C@H](C(=O)N[C@@H](CC(=O)O)C(=O)N[C@@H](C)C(=O)N[C@@H](CC(C)C)C(=O)N[C@@H](CCC(=O)O)C(=O)N[C@@H](Cc1ccc(O)cc1)C(=O)N[C@@H](CCC(=O)O)C(=O)N[C@@H](CC(N)=O)C(=O)N[C@@H](CC(=O)O)C(=O)N[C@@H](C)C(=O)N[C@@H](CC(C)C)C(=O)N[C@@H](CCC(=O)O)C(=O)N[C@@H](CCC(N)=O)C(=O)O)[C@@H](C)CC [SAF-p1A] (H-KIAALKQKIAALKQEIDALEYENDALEQ-OH) | unfolded | ~45 | no | – | – | precipitates |
| K ISALKNK NASLKQE IAALEQE IAALEQ (KISALKNKNASLKQEIAALEQEIAALEQ) [SAF-p2A] | unfolded | – | – | – | – | low solubility |
| CC[C@H](C)[C@H](NC(=O)[C@H](CCCCN)NC(=O)[C@H](CCC(N)=O)NC(=O)[C@H](CCCCN)NC(=O)[C@H](CC(C)C)NC(=O)[C@H](C)NC(=O)[C@H](C)NC(=O)[C@@H](NC(=O)[C@@H](N)CCCCN)[C@@H](C)CC)C(=O)N[C@@H](C)C(=O)N[C@@H](CO)C(=O)N[C@@H](CC(C)C)C(=O)N[C@@H](CCCCN)C(=O)N[C@@H](CCC(N)=O)C(=O)N[C@@H](CCC(=O)O)C(=O)N[C@H](C(=O)N[C@@H](CC(=O)O)C(=O)N[C@@H](C)C(=O)N[C@@H](CC(C)C)C(=O)N[C@@H](CCC(=O)O)C(=O)N[C@@H](Cc1ccc(O)cc1)C(=O)N[C@@H](CCC(=O)O)C(=O)N[C@@H](CC(N)=O)C(=O)N[C@@H](CC(=O)O)C(=O)N[C@@H](C)C(=O)N[C@@H](CC(C)C)C(=O)N[C@@H](CCC(=O)O)C(=O)N[C@@H](CCC(N)=O)C(=O)O)[C@@H](C)CC [SAF-p1C] (H-KIAALKQKIASLKQEIDALEYENDALEQ-OH) | unfolded | ~20 | no | no | – | – |
| CC[C@H](C)[C@H](NC(=O)[C@H](CCCCN)NC(C)=O)C(=O)N[C@@H](C)C(=O)N[C@@H](C)C(=O)N[C@@H](CC(C)C)C(=O)N[C@@H](CCCCN)C(=O)N[C@@H](CCC(N)=O)C(=O)N[C@@H](CCCCN)C(=O)N[C@H](C(=O)N[C@@H](C)C(=O)N[C@@H](C)C(=O)N[C@@H](CC(C)C)C(=O)N[C@@H](CCCCN)C(=O)N[C@@H](CCC(N)=O)C(=O)N[C@@H](CCC(=O)O)C(=O)N[C@H](C(=O)N[C@@H](CC(=O)O)C(=O)N[C@@H](C)C(=O)N[C@@H](CC(C)C)C(=O)N[C@@H](CCC(=O)O)C(=O)N[C@@H](Cc1ccc(O)cc1)C(=O)N[C@@H](CCC(=O)O)C(=O)N[C@@H](CC(N)=O)C(=O)N[C@@H](CC(=O)O)C(=O)N[C@@H](C)C(=O)N[C@@H](CC(C)C)C(=O)N[C@@H](CCC(=O)O)C(=O)N[C@@H](CCC(N)=O)C(N)=O)[C@@H](C)CC)[C@@H](C)CC [SAF-p1B, *K IAALKQK IAALKQE IDALEYE NDALEQ*] (Ac-KIAALKQKIAALKQEIDALEYENDALEQ-NH2) | ~60% | ~70 | – | – | – | – |

Continued, in another order:

| CD DATA @ 10 μM (α-helix) [1] | CD DATA @ 100 μM (α-helix) [1] [%] | EM DATA @ 100 μM (fibres) [2] | LD DATA @ 100 μM (signal) [3] | Molecule | LD signal ([3]; 20 μM) | DESIGN remark on solubility / precipitation [4] |
| --- | --- | --- | --- | --- | --- | --- |
| unfolded | ~20 | thin | – | CC[C@H](C)[C@H](NC(=O)[C@H](CCC(=O)O)NC(=O)[C@H](CCC(N)=O)NC(=O)[C@H](CCC(=O)O)NC(=O)[C@H](CC(C)C)NC(=O)[C@H](C)NC(=O)[C@H](C)NC(=O)[C@@H](NC(=O)[C@H](CCC(=O)O)NC(=O)[C@H](CCC(N)=O)NC(=O)[C@H](CCCCN)NC(=O)[C@H](CC(C)C)NC(=O)[C@H](Cc1c[nH]cn1)NC(=O)[C@H](C)NC(=O)[C@H](CC(N)=O)NC(=O)[C@H](CCCCN)NC(=O)[C@H](Cc1c[nH]c2ccccc12)NC(=O)[C@H](CCCCN)NC(=O)[C@H](CC(C)C)NC(=O)[C@H](C)NC(=O)[C@H](CCCNC(=N)N)NC(=O)[C@@H](NC(=O)[C@@H](N)CCCCN)[C@@H](C)CC)[C@@H](C)CC)C(=O)N[C@@H](C)C(=O)N[C@@H](C)C(=O)N[C@@H](CC(C)C)C(=O)N[C@@H](CCC(=O)O)C(=O)N[C@@H](CCC(N)=O)C(=O)O [SAF-p2C] (H-KIRALKWKNAHLKQEIAALEQEIAALEQ-OH) | – | – |
| ~15% | ~45 | no | no | CC[C@H](C)[C@H](NC(=O)[C@H](CCC(=O)O)NC(=O)[C@H](CCC(N)=O)NC(=O)[C@H](CCC(=O)O)NC(=O)[C@H](CC(C)C)NC(=O)[C@H](C)NC(=O)[C@H](C)NC(=O)[C@@H](NC(=O)[C@H](CCC(=O)O)NC(=O)[C@H](CCC(N)=O)NC(=O)[C@H](CCCCN)NC(=O)[C@H](CC(C)C)NC(=O)[C@H](Cc1c[nH]cn1)NC(=O)[C@H](C)NC(=O)[C@H](CC(N)=O)NC(=O)[C@H](CCCCN)NC(=O)[C@H](C)NC(=O)[C@H](CCCCN)NC(=O)[C@H](CC(C)C)NC(=O)[C@H](C)NC(=O)[C@H](CCCNC(=N)N)NC(=O)[C@@H](NC(=O)[C@@H](N)CCCCN)[C@@H](C)CC)[C@@H](C)CC)C(=O)N[C@@H](C)C(=O)N[C@@H](C)C(=O)N[C@@H](CC(C)C)C(=O)N[C@@H](CCC(=O)O)C(=O)N[C@@H](CCC(N)=O)C(=O)O [SAF-p2D] (H-KIRALKAKNAHLKQEIAALEQEIAALEQ-OH) | – | – |
| ~60% | ~95 | – | – | CC[C@H](C)[C@H](NC(=O)[C@H](CCC(=O)O)NC(=O)[C@H](CCC(N)=O)NC(=O)[C@H](CCC(=O)O)NC(=O)[C@H](CC(C)C)NC(=O)[C@H](C)NC(=O)[C@H](C)NC(=O)[C@@H](NC(=O)[C@H](CCC(=O)O)NC(=O)[C@H](CCC(N)=O)NC(=O)[C@H](CCCCN)NC(=O)[C@H](CC(C)C)NC(=O)[C@H](Cc1c[nH]cn1)NC(=O)[C@H](C)NC(=O)[C@H](CC(N)=O)NC(=O)[C@H](CCCCN)NC(=O)[C@H](Cc1c[nH]c2ccccc12)NC(=O)[C@H](CCCCN)NC(=O)[C@H](CC(C)C)NC(=O)[C@H](C)NC(=O)[C@H](CCCNC(=N)N)NC(=O)[C@@H](NC(=O)[C@H](CCCCN)NC(C)=O)[C@@H](C)CC)[C@@H](C)CC)C(=O)N[C@@H](C)C(=O)N[C@@H](C)C(=O)N[C@@H](CC(C)C)C(=O)N[C@@H](CCC(=O)O)C(=O)N[C@@H](CCC(N)=O)C(N)=O [SAF-p2B, *K IRALKWK NAHLKQE IAALEQE IAALEQ*] (Ac-KIRALKWKNAHLKQEIAALEQEIAALEQ-NH2) | – | – |
